What was measured:
Type in all cases: physicochemical
[1] = Loss on drying of wet filter cake; details: for LoD relative to prior art: relative to WO 2016/095924 example 2 filter cake
Procedure: A sample of the slurry (75 ml) was collected and pressure filtered at 1 bar. Another sample of the slurry (75 ml) was collected, pressure filtered at 1 bar and the filter cake was washed with acetic acid (28 g). The washed and the unwashed solid wet filter cakes were dried overnight at 65° C. and 50 mbar generating loss on drying (LoD) of 17.3% and 23.2 respectively. The concentrations of 2′-FL and other impurities in the mother liquor as well as dried solids were assayed via HPLC. The unwashed dried crystalline material contained 95.3% of 2′-FL and yielded 81.5% of crystalline 2′-FL polymorph II, while the purity of the washed filter cake increased to 97.0%.
Then the filtration was continued for 60 sec. The so-obtained solid wet filter cake was dried overnight (14 hours) at 65° C. and 50 mbar, and loss of drying was determined (see data in the table below).

[2] = Pressure filtration of crystallization slurry (overall filtration rate); details: for filtration rate: 75 ml slurry pressure filtered at ΔP=1 bar, polypropylene filter cloth pore size about 3 μm, filtration area 13 cm^2, filtrate volume/(time·filter area); for filterability improvement relative to prior art: relative to WO 2016/095924 example 2 slurry
Procedure: A sample of the crystallization slurry (75 ml) after completing the crystallization from examples 1-3 above, respectively, and from the prior art (according to WO 2016/095924 example 2, with the difference that the procedure was conducted at 35° C. instead of room temperature and the concentrated syrup was of 62° Bx (140.2 g; containing 48.8 wt % of 2′-FL, 1.3 wt % of lactose and 5.4 wt % of DFL)) was collected and pressure filtered at ΔP=1 bar using a polypropylene filter cloth with a pore size of about 3 μm and a filtration area of 13 cm^2, and the time until the beginning of the liquid-gas mass transfer was measured. The filterability of the slurries was compared by calculating an overall filtration rate according to the following equation: filtrate volume [cm^3]/(time [sec]·filter area [cm^2]).

[3] = Residual AcOH content (Megazyme K-ACETRM 07/12); details: dried crystals
Procedure: (§1) The water content of dried crystal powder was measured by Karl-Fischer titration. Residual AcOH content was measured using Megazyme K-ACETRM 07/12.

[4] = Water content of dried crystal powder by Karl-Fischer titration; details: dried crystals
Procedure: as §1

[5] = unwashed solid wet filter cake dried overnight (14 hours) at 65° C. and 50 mbar
[6] = filter cake washed with acetic acid, dried overnight at 65° C. and 50 mbar

LoD (loss on drying) [1, 5] [%] | filtration rate [2] [cm/s] | filterability improvement relative to prior art [2] [x] | LoD (loss on drying) [1, 6] [%] | LoD relative to prior art [1] | AcOH content [3] [wt %] | H2O content [4] [wt %] | Structure (SMILES)
48.5 |  |  |  |  |  |  | C[C@@H]1OC(O[C@H]2[C@H](O[C@H]3[C@H](O)[C@@H](O)C(O)O[C@@H]3CO)O[C@H](CO)[C@H](O)[C@@H]2O)[C@@H](O)[C@H](O)[C@@H]1O (single isomer, unassigned) [Example 4, 2′-O-fucosyllactose]
22.5 | 0.16 | 2.57 | 16.1 | 0.42-fold fold lower | 0.11 |  | C[C@@H]1OC(O[C@H]2[C@H](O[C@H]3[C@H](O)[C@@H](O)C(O)O[C@@H]3CO)O[C@H](CO)[C@H](O)[C@@H]2O)[C@@H](O)[C@H](O)[C@@H]1O (single isomer, unassigned) [Example 3, 2′-O-fucosyllactose]
23.2 | 0.39 | 6.12 | 17.3 | 0.44-fold fold lower | 0.15 | 0.06 | C[C@@H]1OC(O[C@H]2[C@H](O[C@H]3[C@H](O)[C@@H](O)C(O)O[C@@H]3CO)O[C@H](CO)[C@H](O)[C@@H]2O)[C@@H](O)[C@H](O)[C@@H]1O (single isomer, unassigned) [Example 1, 2′-O-fucosyllactose]
52.9 | 0.064 |  |  |  | 0.58 | 0.63 | C[C@@H]1OC(O[C@H]2[C@H](O[C@H]3[C@H](O)[C@@H](O)C(O)O[C@@H]3CO)O[C@H](CO)[C@H](O)[C@@H]2O)[C@@H](O)[C@H](O)[C@@H]1O (stereo partly drawn) [WO 2016/095924, 2′-O-fucosyllactose, reference compound]
24.7 | 0.62 | 9.78 |  | 0.46-fold fold lower | 0.36 | 0.05 | C[C@@H]1OC(O[C@H]2[C@H](O[C@H]3[C@H](O)[C@@H](O)C(O)O[C@@H]3CO)O[C@H](CO)[C@H](O)[C@@H]2O)[C@@H](O)[C@H](O)[C@@H]1O (single isomer, unassigned) [Example 2, 2′-O-fucosyllactose]
